Patent US20260137697A1, “THIAZOLO[5,4-D]PYRIMIDINE COMPOUNDS, COMPOSITIONS COMPRISING THEM AND USES THEREOF” (University de Montreal, priority 2022, published 2026)
Like-named read-outs stand apart in the source and are kept apart here.

What was measured:
Assay type in all cases: cell-based, human
A375 cells = assay: Proliferation inhibition, CellTiter-Glo, A375; conditions: Table D-1, A375 (BRAF V600E), 3 days, read-out: Prolif. (proliferation EC50)
Protocol: (§1) All cancer cell lines (A375, A101D, A2058, RKO, HT29 SK-MEL 30, IPC298, HepG2, HCT-116, Lovo, SW620, SW480, NCI-H358, NCI-H2122, Calu-6, NCIH2087, NCIH1755, NCIH1666 and Mewo) were obtained from ATCC and cultured in RPM1-1640 medium (Gibco) supplemented with 5% heat inactivated fetal bovine serum (FBS, Wisent) at 37° C. under 5% CO2. Cells were maintained in T175 flasks (Greiner). They were passaged by removing the culture medium, washing once in 10 mL of room temperature Phosphate Buffered Saline (PBS; Wisent) and incubating at 37° C. with 2 mL of 0.05% Trypsin (Thermo-Fisher). Trypsin was then inactivated by adding complete growth medium and the cells were then replated in a T175 culture dish at the appropriate dilution. All cell lines were routinely tested for mycoplasma contamination. Tissue type and mutational status of each cell line can be found in Table B.
(§2) CellTiter-Glo® viability analysis was conducted on cells plated in 100 μL of complete RPMI-1640 growth medium in 96-well flat-bottomed white opaque plates (Greiner or Croning) at a density indicated in Table E (for each CCL, number of cells plated per well of a 96-well plate to perform the CellTiter-Glo® cell viability assay). The cell density in cells/cm^2 would correspond to cell number divided by the area of one well of a 96-well plate (0.32 cm^2). […]
(§3) After 3 days of incubation, the growth media were removed by aspiration and 60 μL of diluted CellTiter-Glo® reagent (10 μL CellTiter-Glo® reagent+50 μL of PBS) was added to each well. […] Luminescence signals were then acquired on a Synergy Neo2 plate reader (Biotek).
(§4) The effect of each compound dilution on the proliferation of cancer cell lines was expressed in % inhibition and calculated as follows. […]
(§5) The ability of each compound to inhibit proliferation was expressed as a EC50 value obtained by plotting the effect values for each data point of a dilution series and fitting the obtained curves using a log(agonist) versus response—variable slope (four parameters) function using GraphPadPrism (V7.0) or Dotmatics Screening Ultra platform.

SW480 cells = assay: Proliferation inhibition, CellTiter-Glo, SW480; conditions: Table D-2, SW480 (KRAS G12D), 3 days, read-out: Prolif. (proliferation EC50)
Protocol: as §1, §2, §3, §4, §5

pERK, NCI-H2122 cells = assay: Phospho-ERK inhibition, AlphaLISA p-ERK 1/2, NCI-H2122; conditions: Table D-2; for IC50: NCI-H2122 (KRAS-G12C); for pERK value in parentheses, % inhibition (Ymin): NCI-H2122, lowest point of IC50 curve
Protocol: as §1
(c) Measurement of Phospho-ERK Inhibition in Cultivated Human Cancer Cell Lines by the AlphaLISA® SureFire® Ultra™ p-ERK 1/2 (Thr2O2/Tyr204)
AlphaLISA® SureFire® Ultra™ p-ERK 1/2 (Thr202/Tyr204) analysis was conducted on cells plated in 100 μL of complete RPMI-1640 growth medium in 96-well flat-bottomed transparent dishes (Costar) at a density indicated in Table C. Cells were maintained overnight at 37° C. under 5% CO2 before treatment with compounds' dilution series for one hour. The cell density in cells/cm^2 corresponds to cell number divided by the area of one well of a 96-well plate (0.143 cm^2).
In a dilution series 100 μL/well of test substance dilution prepared in complete RPMI-1640 growth media was added to the cells. The dilution series is selected so that ten concentrations cover a range from 10 μM to 0.33 nM. If necessary, the initial concentration of 10 μM is increased to 100 μM or lowered to 1 μM (as in the case of A375 and H1666 cells, which are generally more sensitive to the compounds) and further dilution is carried out accordingly. The final concentration of DMSO in the assay is set at 0.5%.
After treatment, media was removed, and cells were lysed in 50 μL of 1× AlphaScreen Ultra Lysis Buffer (Perkin Elmer). The AlphaLISA® SureFire® Ultra™ p-ERK 1/2 (Thr202/Tyr204) (PerkinElmer) reactions were performed with 5 μL of cell lysate according to the manufacturer's specifications in 384-well proxyplates (Perkin Elmer) followed by overnight incubation of the reactions at room temperature in a humidified chamber. After completion of the reactions, the signals were recorded on an EnVision plate reader (Perkin Elmer) using built in AlphaLISA® settings.
The effect of each compound dilution on the pERK signal was expressed in % inhibition and calculated as follows. An internal 100% inhibition control (1 μM trametinib, cat. No. HY-10999; MedChem Express; CAS No. 871700-17-3) was included in each plate and used as a measure of pERK background. First, the value obtained for trametinib was subtracted from each data point. The average of DMSO (vehicle) controls (set as 0% inhibition) was established and used to calculate % inhibition:
as §5, with “pERK signal” for “proliferation”, “an IC50” for “a EC50”, “inhibition” for “effect”
When present, paradoxical pERK induction is inferred from the negative % inhibition values observed in the pERK IC50 curves of a compound.

IPC298 cells = assay: Proliferation inhibition, CellTiter-Glo, IPC298; conditions: Table D-1, IPC298 (NRAS-Q61L), 3 days, read-out: Prolif. (proliferation EC50)
Protocol: as §1, §2, §3, §4, §5

Mewo cells = assay: Proliferation inhibition, CellTiter-Glo, Mewo; conditions: Table D-2, Mewo (NF1 LOF), 3 days, read-out: Prolif. (proliferation EC50)
Protocol: as §1, §2, §3, §4, §5

SMILES	EC50 (A375 cells; Homo sapiens, A-375, 72 h) [nM]	EC50 (SW480 cells; Homo sapiens, 72 h) [nM]	IC50 (pERK, NCI-H2122 cells; Homo sapiens) [nM]	pERK value in parentheses, % inhibition (Ymin) (pERK, NCI-H2122 cells)	EC50 (IPC298 cells; Homo sapiens, IPC-298, 72 h) [nM]	EC50 (Mewo cells; Homo sapiens, 72 h) [nM]	EC50 (A375 cells) [nM]	EC50 (SW480 cells) [nM]	IC50 (pERK, NCI-H2122 cells) [nM]	EC50 (IPC298 cells) [nM]	EC50 (Mewo cells) [nM]
Cc1ccc2c(Nc3cccc(Cl)c3F)nccc2c1NC(=O)c1csc2c(N)ncnc12 [Belvarafenib, reference compound]	< 300	300 to 3000	30 to 300	(−9) %	< 300	300 to 3000	–	–	–	–	–
Cc1c(F)cccc1S(=O)(=O)Nc1ccc(F)c(Nc2ncnc3sc(-n4cc(C(=O)N5C6CCC5CN(C)C6)c5ccccc54)nc23)c1F [Example 44]	–	–	–	(−11) %	–	–	< 300	< 300	30 to 300	< 300	< 300
N#CC1(c2cccc3c2ncn3-c2nc3c(Nc4c(F)ccc(NS(=O)(=O)c5cccc(Cl)c5Cl)c4F)ncnc3s2)CC1 [Example 122]	–	–	–	(27) %	–	–	< 300	< 300	30 to 300	< 300	< 300
